These results are taken from patent publication US9060541B2, “Sterilizer for foods” (Kawakami Co., Ltd., priority 2009, dated 2015).

The subject of assay [1] is Escherichia coli O-157 (enterohemorrhagic Escherichia coli O157: H7 EDL 933). In words: Cutting board sterilization test. Conditions: 0.7 ml sprayed on contaminated cutting board; swab sample 1 minute later; cultured 24 hours at 37° C. The format is cell-based.
The test system of a further assay is general viable bacteria. As to the kind of experiment: Hand sterilization test (Sterilization Test 2). The conditions noted are these: 1.4 ml sprayed on washed and dried hand; swab sample 1 minute later; cultured 48 hours at 37° C.
For assay [2], the system named is Campylobacter jejuni subsp. Jejuni JCM2013. In words: Sterilization test on beef (yukhoe; raw beef). The conditions noted are these: sprayed and mixed into inoculated beef; 24 hours after storage at 10° C. The format is cell-based.
A further assay deals with Escherichia coli (NIHJ). In words: Sterilization effect determination test (Fujimoto's modified method of the Kelsey-Sykes method). The format is cell-based. On the set-up: key: D: There is no sterilization effect.; C: There is a sterilization effect in step (1) but no sterilization effect in step (2).; B: There is a sterilization effect up to step (2) but no sterilization effect in step (3).; A: There is a sterilization effect up to step (3). The conditions noted are these: water remainder.

In assay [3] the test system is Staphylococcus aureus (209P). Described as above. The format is cell-based. Also on record: key: D: There is no sterilization effect.; C: There is a sterilization effect in step (1) but no sterilization effect in step (2).; B: There is a sterilization effect up to step (2) but no sterilization effect in step (3).; A: There is a sterilization effect up to step (3). The conditions noted are these: water remainder.

The mark [4] stands for this setting: Table 1, compositions of calcinated calcium and ethanol, 20° C., steps (1)-(3).
[5] abbreviates: Table 2, compositions of calcinated calcium and ethanol, 20° C., steps (1)-(3).
Where [6] appears, read: Table 3, compositions with sodium lactate blended.
[7] abbreviates: Table 4, compositions with sodium lactate blended.

Turning to `CCO` [70% ethanol, ethanol], the “Cutting board microbe eradication results (general viable bacteria count)” value in assay [1] is reported as 2.8 × 10^4. Besides, the “Hand sterilization results (general viable bacteria count)” value in the assay with general viable bacteria is reported as 6.2 × 10^3. Moreover, the viable bacteria count in assay [2] is reported as 10^5 to 10^6.

`CCO` [Ethanol 5 wt %, ethanol]: the Sterilization effect result (with Escherichia coli (NIHJ) (setting [4]); in assay [3] (setting [5])) was “D” throughout.

With `CCO` [Ethanol 10 wt %, ethanol], the Sterilization effect entry (in the assay with Escherichia coli (NIHJ) (setting [4]); in assay [3] (setting [5])) was “D” each time.

With `CCO` [Ethanol 20 wt %, ethanol], the Sterilization effect entry (in the assay with Escherichia coli (NIHJ) (setting [4]); in assay [3] (setting [5])) was “D” in each case.

Take `CCO` [Ethanol 50 wt %, ethanol]: the results for the Sterilization effect entry (with Escherichia coli (NIHJ) (setting [4]); in assay [3] (setting [5])) were “B” and “D”, respectively.

`CCO` [Ethanol 75 wt %, ethanol]: the Sterilization effect result (in the assay on Escherichia coli (NIHJ) (setting [4]); in assay [3] (setting [5])) was “B” throughout.

Regarding `CCO` [Ethanol 100 wt %, ethanol], the Sterilization effect result (in the assay with Escherichia coli (NIHJ) (setting [4]); in assay [3] (setting [5])) was “A” throughout.

For the molecule `CC(O)C(=O)[O-].[Na+]` (stereo not shown) [Sodium lactate 1.5 wt %, sodium lactate], the Sterilization effect result (with Escherichia coli (NIHJ) (setting [6]); in assay [3] (setting [7])) was “D” each time.

As to `CC(O)C(=O)[O-].[Na+]` (stereo not shown) [Sodium lactate 3 wt %, sodium lactate], the Sterilization effect entry (in the assay with Escherichia coli (NIHJ) (setting [6]); in assay [3] (setting [7])) was “D” in each case.

As to `CC(O)C(=O)[O-].[Na+]` (stereo not shown) [Sodium lactate 4.5 wt %, sodium lactate], the Sterilization effect entry (in the assay on Escherichia coli (NIHJ) (setting [6]); in assay [3] (setting [7])) was “D” throughout.

Take `CC(O)C(=O)[O-].[Na+]` (stereo not shown) [Sodium lactate 6 wt %, sodium lactate]: the Sterilization effect result (in the assay with Escherichia coli (NIHJ) (setting [6]); in assay [3] (setting [7])) was “D” in each case.

Consider `CC(O)C(=O)[O-].[Na+]` (stereo not shown) [Sodium lactate 9 wt %, sodium lactate], for which the Sterilization effect result in the assay with Escherichia coli (NIHJ) (setting [6]) is “no sterilization effect whatsoever and D”; in assay [3] (setting [7]), “D”.
